PMC11842588, “A first-in-class selective inhibitor of ERK1/2 and ERK5 overcomes drug resistance with a single-molecule strategy” (Signal Transduction and Targeted Therapy, 2025)

Experiments:
ERK5 [1] = target: T1, ERK5 (Homo sapiens, UniProt Q13164); assay: Isothermal titration calorimetry (ITC) assay; type: binding; design: ERK5 (residues 48–395) containing His and GST tags was cloned into the pFastBac vector; His (cleaved yes); GST (cleaved yes); made in house; host or cells: Sf9 insect cells (baculovirus); conditions: 25 °C
Description: The full-length human ERK1 or ERK2 with His-tag was cloned into a pET28a vector. hERK1/2 were expressed in Escherichia coli BL21(DE3), and then were purified using sequential Ni-NTA and Superdex 200 column steps. The SEC purified sample was then concentrated to 10 mg/ml and stored at −80 °C with buffer containing 20 mM HEPES pH 7.5, 150 mM NaCl. ERK5 (residues 48–395) containing His and GST tags was cloned into the pFastBac vector, and the recombinant plasmid was extracted. The recombinant plasmid was transformed into the DH10bac strain, and monoclonal was selected for culture. The recombinant Bacmid was then extracted according to the instructions of the Baculovirus Shuttle Vector Bacmid Mini Preparation Kit (Beyotime) and validated by PCR. 1 × 10^6/well Sf9 cells were counted for transfection and then amplified to obtain P3 ERK5 recombinant baculovirus. It was added to 2 × 10^6/mL Sf9 cells and incubated at 27 °C for 72 h on a shaker to express ERK5. Cells were lysed and supernatant was collected on a Ni-NTA for purification, and a 250 mM imidazole eluate was collected. […]
Calorimetric experiments were carried on an Affinity ITC (Waters, Shanghai) with 1 mM SKLB-D18 and 0.1 mM ERK1/2/5. […] The data were analyzed with the NanoAnalyze software employing a single binding site model. […]
Target sequence in this assay (Q13164 48-395): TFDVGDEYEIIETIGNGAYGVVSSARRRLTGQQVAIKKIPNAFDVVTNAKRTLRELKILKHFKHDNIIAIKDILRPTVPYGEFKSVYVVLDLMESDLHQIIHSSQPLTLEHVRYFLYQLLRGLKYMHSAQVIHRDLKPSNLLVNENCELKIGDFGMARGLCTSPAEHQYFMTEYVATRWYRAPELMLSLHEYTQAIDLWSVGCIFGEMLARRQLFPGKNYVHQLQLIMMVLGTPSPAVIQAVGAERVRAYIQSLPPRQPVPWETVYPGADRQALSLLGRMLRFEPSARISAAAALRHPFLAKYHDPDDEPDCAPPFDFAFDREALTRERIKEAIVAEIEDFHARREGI

[2] = H&E staining of major organs; type: in vivo; conditions: xenograft study, heart, liver, spleen, lung, kidney
Description: (§1) All procedures were performed in accordance with the Laboratory Animals Welfare Act, the Guide for the Care and Use of Laboratory Animals and the Guidelines and Policies. The rodent experiment was approved by IACUC (Institutional Animal Care and Use Committee) in the Experimental Animal Ethics Committee of West China Hospital (Approval No. 2021672A). 48 female nude mice (BALB/c-nu, 5 weeks, 15–18 g, purchased from Beijing HFK Bio-Technology Co., LTD) were acclimatized for one week in an SPF-grade animal facility (ventilated, 20–25 °C, 50–60% humidity). […] When the tumor volume reached approximately 100 mm^3 (V = L × W^2/2), the mice were randomly divided into six groups (n = 8 per group): (1) Control group (normal saline); (2) 25 mg/kg SKLB-D18-treated group; (3) 50 mg/kg SKLB-D18-treated group; (4) 50 mg/kg BVD-523-treated group; (5) 50 mg/kg XMD8-92-treated group; (6) BVD-523 (50 mg/kg) and XMD8-92 (50 mg/kg) combined treatment group. Drugs were freshly prepared with 5% DMSO, 10% Solutol HS-15, and 85% normal saline on the day of administration. Intragastric administration occurred once daily at the same time for 16 consecutive days. And the body weight and tumor volume of mice were measured every three days. […]
First, the fixed major organs of nude mice were dehydrated, embedded, and sectioned. […] Staining results and tissue morphology were analyzed under a microscope.

Ki-67 = assay: IHC of Ki-67 in xenograft tumor tissue; type: in vivo, nude mice (BALB/c-nu); conditions: 50 mg/kg
Description: as §1, with “Intragastric administration occurred once daily at the same time for 16 consecutive days.” left out
Briefly, tumor tissues were dehydrated, embedded, and sectioned. […] Microscopic analysis and imaging were performed, analyzed with ImageJ, and statistical graphs were created using GraphPad Prism 9.5. […]

ERK1 = ERK1 (Homo sapiens, UniProt P27361); assay: ADP-Glo kinase assay; type: biochemical
Chain of ERK1 (P27361 whole entry, the tested form may be a part): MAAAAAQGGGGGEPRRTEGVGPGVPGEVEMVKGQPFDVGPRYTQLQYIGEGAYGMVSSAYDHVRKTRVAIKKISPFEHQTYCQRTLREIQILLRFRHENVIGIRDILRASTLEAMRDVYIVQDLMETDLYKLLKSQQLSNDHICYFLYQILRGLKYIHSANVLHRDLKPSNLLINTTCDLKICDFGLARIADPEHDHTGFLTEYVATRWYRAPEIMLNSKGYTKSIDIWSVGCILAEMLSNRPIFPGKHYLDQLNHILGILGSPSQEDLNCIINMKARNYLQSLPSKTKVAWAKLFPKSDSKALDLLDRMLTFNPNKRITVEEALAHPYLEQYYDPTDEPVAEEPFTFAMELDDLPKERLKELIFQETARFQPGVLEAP
Description: (§2) The full-length human ERK1 or ERK2 with His-tag was cloned into a pET28a vector. hERK1/2 were expressed in Escherichia coli BL21(DE3), and then were purified using sequential Ni-NTA and Superdex 200 column steps. The SEC purified sample was then concentrated to 10 mg/ml and stored at −80 °C with buffer containing 20 mM HEPES pH 7.5, 150 mM NaCl. ERK5 (residues 48–395) containing His and GST tags was cloned into the pFastBac vector, and the recombinant plasmid was extracted. The recombinant plasmid was transformed into the DH10bac strain, and monoclonal was selected for culture. The recombinant Bacmid was then extracted according to the instructions of the Baculovirus Shuttle Vector Bacmid Mini Preparation Kit (Beyotime) and validated by PCR. 1 × 10^6/well Sf9 cells were counted for transfection and then amplified to obtain P3 ERK5 recombinant baculovirus. It was added to 2 × 10^6/mL Sf9 cells and incubated at 27 °C for 72 h on a shaker to express ERK5. Cells were lysed and supernatant was collected on a Ni-NTA for purification, and a 250 mM imidazole eluate was collected. Next, digestion by TEV protease was performed overnight while dialysis was performed in approximately 1000 mL of imidazole-free buffer. The digested ERK5 protein was sequentially purified on the Ni-NTA and GST-tag Purification Resin, followed by size exclusion chromatography on a Superdex 75 column. ERK5 protein was collected and concentrated to 12 mg/ml and stored at −80 °C in buffer containing 50 mM HEPES pH 8.0, 200 mM NaCl, 10% (v/v) glycerol.
(§3) ERK1/2/5 kinase activity assay was conducted using ADP-Glo™ Kinase Assay. 2× ATP solution and 2× kinase & Metal solution were prepared using assay buffer were prepared using assay buffer containing 50 mM Hepes pH 7.5, 10 mM MgCl2; 0.01% Brij35, 1 mM EGTA, 2 mM DTT. Transfer 40 nL compounds to 384 assay plate. Add 2 μL of 2× kinase & Metal solution were mixed and incubated in a 384-assay plate for 10 min at 25 °C. 2 μL of 2×ATP solution was added and incubated at 25 °C for 60 min. And then, each well was supplemented with 4 µL of ADP-Glo^TM reagent and incubated at 25 °C for 40 min. Subsequently, 8 µL of Kinase Detection Reagent was added and incubated at 25 °C for 40 min. Finally, the luminescence signals were recorded. The IC50 values were calculated using GraphPad Prism 9.5 software.

ERK5 [3] = target: T1, ERK5; assay: ADP-Glo kinase assay; type: biochemical
Description: as §2, §3
Target sequence in this assay (Q13164 whole entry, the tested form may be a part): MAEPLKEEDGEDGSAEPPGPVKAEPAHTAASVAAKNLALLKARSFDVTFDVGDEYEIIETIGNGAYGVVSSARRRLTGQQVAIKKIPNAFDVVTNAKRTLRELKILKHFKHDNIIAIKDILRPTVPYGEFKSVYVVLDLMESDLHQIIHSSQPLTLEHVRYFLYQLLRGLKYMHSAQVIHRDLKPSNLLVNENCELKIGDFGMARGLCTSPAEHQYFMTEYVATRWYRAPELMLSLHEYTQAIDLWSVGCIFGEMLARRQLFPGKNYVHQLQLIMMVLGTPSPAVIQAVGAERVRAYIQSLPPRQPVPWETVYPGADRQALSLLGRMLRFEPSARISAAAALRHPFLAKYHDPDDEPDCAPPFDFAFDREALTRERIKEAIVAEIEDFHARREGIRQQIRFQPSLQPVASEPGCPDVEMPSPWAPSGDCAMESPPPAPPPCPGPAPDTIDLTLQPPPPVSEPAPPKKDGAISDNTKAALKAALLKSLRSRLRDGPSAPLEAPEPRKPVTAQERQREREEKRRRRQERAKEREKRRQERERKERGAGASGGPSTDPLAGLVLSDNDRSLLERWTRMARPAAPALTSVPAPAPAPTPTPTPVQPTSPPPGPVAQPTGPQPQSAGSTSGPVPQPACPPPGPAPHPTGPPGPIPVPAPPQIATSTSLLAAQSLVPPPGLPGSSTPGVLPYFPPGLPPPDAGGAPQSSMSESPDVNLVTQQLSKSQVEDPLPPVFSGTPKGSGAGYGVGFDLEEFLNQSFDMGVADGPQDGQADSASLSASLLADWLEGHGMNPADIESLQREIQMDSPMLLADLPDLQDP

ERK2 = ERK2 (Homo sapiens, UniProt P28482); assay: ADP-Glo kinase assay; type: biochemical
Chain of ERK2 (P28482 whole entry): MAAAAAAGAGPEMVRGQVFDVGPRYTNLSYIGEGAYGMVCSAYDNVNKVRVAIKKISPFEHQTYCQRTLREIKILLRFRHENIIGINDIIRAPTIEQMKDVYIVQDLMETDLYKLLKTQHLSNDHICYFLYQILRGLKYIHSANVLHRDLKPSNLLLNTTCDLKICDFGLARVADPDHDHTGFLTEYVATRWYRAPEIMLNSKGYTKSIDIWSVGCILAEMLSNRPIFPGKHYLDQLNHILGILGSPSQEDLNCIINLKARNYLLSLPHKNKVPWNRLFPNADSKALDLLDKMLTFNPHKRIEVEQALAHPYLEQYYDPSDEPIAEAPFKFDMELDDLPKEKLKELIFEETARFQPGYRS
Description: as §2, §3

CN(C)Cc1cccc(Nc2ncc(Cl)c(-c3csc(C(=O)NN4CCOCC4)c3)n2)c1 [SKLB-D18, 4-(5-chloro-2-((3-((dimethylamino)methyl)phenyl)amino)pyrimidin-4-yl)-N-morpholinothiophene-2-carboxamide]
Kd (ERK5 [1]): 468 nM | toxicity to major organs (H&E staining) [2]: no significant toxicity | Ki-67 positive area (Ki-67): less than 20% | IC50 (ERK1; ADP-Glo): 38.7 ± 0.62 nM | inhibition at 0.5 µM (ERK1; read-out: Enzyme inhibitory activity (500 nM, %) ERK1): 95.62 ± 0.84% | IC50 (ERK5 [3]; ADP-Glo): 59.7 ± 1.21 nM | inhibition at 0.5 µM (ERK5 [3]; read-out: Enzyme inhibitory activity (500 nM, %) ERK5): 93.1 ± 1.03% | IC50 (ERK2; ADP-Glo): 40.1 ± 0.95 nM | inhibition at 0.5 µM (ERK2; read-out: Enzyme inhibitory activity (500 nM, %) ERK2): 93.2 ± 1.45%
